The subject of data set [1] is SCG sympathetic neurons from C57BL/6 mice. Put plainly: Whole cell patch-clamp electrophysiology of sympathetic neurons. On the technique in general: In patch-clamp work, channel activity is measured electrically.
Data set [2] has as its system C57BL/6 mice. The experiment in a line: Thermoregulation studies (thermography, rectal probe) during DIO. The format is in vivo, mouse. The conditions noted are these: 2 h post-injection. How it is done:
All measurements were done in ad libitum fed mice 2 h post-injections. Rectal temperature was measured with an electronic thermometer (Precision). BAT and Tail thermographic pictures were taken using a Compact-Infrared-Thermal-Imaging-Camera (FLIR; West Mailing) and FLIR-Tools-Software (FLIR; West Mailing) to quantify local temperatures.

Data set [3] deals with LSL-DTR (Control) and TH-cre; LSL-DTR (Symp) mice. The experiment in a line: High fat diet challenge in Control and sympathectomized (Symp) mice, 6 weeks. Type of data set: in vivo, mouse. The conditions noted are these: for BW gain: 6 weeks HFD, 0.12 mol/kg daily IP; for Locomotor activity, total distance traveled: 10-min video-tracking, 1 h post-injection; for Plasma Glycerol levels: 2 h post-injection; for Food intake: HFD. As for the experimental part:
For detailed characterization refer to Pereira et al. 2017(52). Briefly, TH-cre; LSL-DTR mice were used for this experiment and LSL-DTR mice were used as controls. PEGylated Diphtheria Toxin (PEGyDT) was administered once a day for 8 consecutive days (25 ng/g of BW, IP injections). All following experiments were performed at least 24 h post the last injection.
(§1) Blood glucose was measured using a glucometer (Accu-Check, Roche). Analysis of Insulin, Triglycerides, Glycerol and FFA levels in plasma as performed using Mouse Ultrasensitive Insulin ELISA (Alpco), Triglyceride Quantification Kit (Abcam), Free Glycerol Reagent (Sigma) and Glycerol Standard Solution (Sigma), and Free Fatty Acid Quantification Kit (MAK044, Sigma), respectively according to manufacturer's instructions.
[…]. Tissues were homogenized and sonicated in homogenization buffer (1 N HCl, 1 mM EDTA, 4 mM Sodium metabisulfite), and cellular debris were pelleted by centrifugation at 20,000 g for 10 min at 4° C.). All tissue samples were normalized to total tissue protein concentration.
(§2) After 3 weeks of HFD exposure and treatment, mice were either acclimated to tracking cages for 1 week before starting the 72 h locomotion measurements using the LabMaster tracking system (TSE Systems; Bad Homburg); or filmed for 20-30 min, with a ZEISS optics camera, 1 h post injection inside their normal housing cage, for assessment of total distance traveled. Footage-records were filtered using the video editor Avidemux (Avidemux 2.7.1) and 10 or 15 min distance computations were quantified using the TrackMate tracking plugin from Fiji (Fiji; Wisconsin-Madinson).

Data set [4] concerns C57BL/6 mice. The experiment in a line: Acute behaviour and WAT NE content after single IP injection. The format is in vivo, mouse. How it is done:
NE levels were determined with an NE ELISA kit (Labor Diagnostika Nord GmbH). Tissues were homogenized and sonicated in homogenization buffer (1 N HCl, 1 mM EDTA, 4 mM Sodium metabisulfite), and cellular debris were pelleted by centrifugation at 20,000 g for 10 min at 4° C.). All tissue samples were normalized to total tissue protein concentration.
as §2

The test system of data set [5] is C57BL/6 mice. Put plainly: Diet induced obesity, 10 weeks HFD with chronic treatment. Type of data set: in vivo, mouse.
Data set [6] concerns C57BL/6 mice. Put plainly: Faecal output and plasma triglycerides during HFD feeding. The format is in vivo, mouse. As for the experimental part:
as §1
24 h faecal output was collected and weighed. The faeces were washed with 1×PBS and total triglyceride content was extracted by homogenization and boiling, for 2 cycles of 5 min, in 5% NP-40. Triglyceride content was measured using Triglyceride Quantification Kit (Abcam), according to manufacturer's instructions, and normalized to the weight of total faecal output.

The test system of data set [7] is superior cervical ganglia sympathetic neurons from GCaMP3+ mice. Put plainly: Intracellular calcium imaging of ACh-stimulated sympathetic neurons. The format is cell-based, mouse. The conditions noted are these: 15 μM drug for 24 h; 10 μM ACh for 40 s. As for the experimental part: For Ca^2+ experiments, sympathetic neurons obtained from GCaMP3^+ mice. […] At 7 DIV, coverslips with sympathetic neurons from GCaMP3^+ mice were mounted on an inverted microscope with epifluorescent optics (Axiovert 135TV, Zeiss) equipped with a xenon lamp (located at a Lambda DG-4 (Sutter Instrument) and band-pass filter of 450-490 nm wavelengths. Ca^2+ measurements were performed at 37° C., as reported in Jacob et al., 2014(33) Throughout the experiments the Ach was applied focally through a drug filled micropipette placed under visual guidance over a single neuronal cell. Drug release was performed by focal pressure (10 psi for 40 s) through a Toohey Spritzer pressure System Ile (Toohey Company). […] Images were obtained every 250 ms by exciting the preparations at 450-490 nm and the emission wavelength was set to 510 nm. Neurons were imaged with a cooled CCD camera (Photometrics CoolSNAP fx), processed and analysed using the software MetaFluor (Universal laging, West Chester, Pa.). Ca^2+ levels were recorded at the cell body of neurons (manually defined over the cell profile) in the field of view and variations were estimated as changes of the fluorescence signal over the baseline (ΔF/F0=[(Fpost−Frest)/Frest]).

The target in a further data set is T1, Slc6a2 (Mus musculus, UniProt O55192).
T1 construct: CD45.2+F4/80+ cells isolated from the SCG of either B6 or Slc6a2−/− mice; from tissue; sorted CD45+F4/80+ sympathetic neuron-associated macrophages (sympathetic neurons are also present)
T1 sequence (O55192 whole entry): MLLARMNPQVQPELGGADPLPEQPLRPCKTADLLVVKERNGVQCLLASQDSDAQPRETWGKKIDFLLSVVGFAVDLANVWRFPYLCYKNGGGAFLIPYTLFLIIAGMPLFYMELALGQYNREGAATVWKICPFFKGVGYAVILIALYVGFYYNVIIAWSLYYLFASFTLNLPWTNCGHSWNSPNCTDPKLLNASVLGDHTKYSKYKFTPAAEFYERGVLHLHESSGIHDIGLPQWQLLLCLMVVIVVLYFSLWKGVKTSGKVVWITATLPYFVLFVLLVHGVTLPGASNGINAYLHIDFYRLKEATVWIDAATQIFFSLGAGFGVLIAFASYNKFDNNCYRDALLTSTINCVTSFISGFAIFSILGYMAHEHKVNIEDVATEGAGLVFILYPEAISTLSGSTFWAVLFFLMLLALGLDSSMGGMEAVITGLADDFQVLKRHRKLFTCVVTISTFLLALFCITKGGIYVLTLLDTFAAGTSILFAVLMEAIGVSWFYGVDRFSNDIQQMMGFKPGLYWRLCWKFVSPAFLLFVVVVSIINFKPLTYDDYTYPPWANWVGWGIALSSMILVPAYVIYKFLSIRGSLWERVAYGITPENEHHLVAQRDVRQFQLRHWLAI
The experiment in a line: NE uptake by SAMs in SCG explant cultures, SLC6A2 blocker. Type of data set: cell-based. The following applies: 100 nM Nisoxetine hydrochloride.

The next data set concerns the target T2, MAOa (Mus musculus, UniProt Q64133).
T2 construct: CD45.2+F4/80+ cells isolated from the SCG of either B6 or Slc6a2−/− mice; from tissue; sorted CD45+F4/80+ SAMs (neuronal MAOa may also contribute to NE in the medium)
T2 sequence (Q64133 1-526): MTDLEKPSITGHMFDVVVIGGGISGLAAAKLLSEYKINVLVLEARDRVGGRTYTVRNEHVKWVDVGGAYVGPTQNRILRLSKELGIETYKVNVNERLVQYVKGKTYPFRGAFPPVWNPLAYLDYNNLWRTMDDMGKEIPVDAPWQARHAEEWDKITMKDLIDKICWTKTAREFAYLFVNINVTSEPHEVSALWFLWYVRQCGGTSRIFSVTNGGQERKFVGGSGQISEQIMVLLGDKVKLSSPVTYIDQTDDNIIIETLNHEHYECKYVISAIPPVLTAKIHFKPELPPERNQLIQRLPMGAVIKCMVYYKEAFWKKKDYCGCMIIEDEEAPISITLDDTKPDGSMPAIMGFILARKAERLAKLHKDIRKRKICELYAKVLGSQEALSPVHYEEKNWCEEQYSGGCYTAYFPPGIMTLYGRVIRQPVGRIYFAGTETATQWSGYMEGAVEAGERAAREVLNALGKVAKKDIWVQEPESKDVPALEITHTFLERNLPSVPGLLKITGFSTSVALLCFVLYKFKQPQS
The experiment in a line: NE content of SAMs and medium in SCG explant cultures, MAOA blocker. The format is cell-based. The following applies: ACh-activated SCG explants; 100 μM Clorgyline, 2 hours. As for the experimental part: SCG were removed from 4-6 weeks old mice under a stereomicroscope and placed in Dulbecco's Modified Eagle's medium (DMEM, Invitrogen, Carlsbad, Calif., U.S.A.). Ganglia were cleaned from the surrounding tissue capsule and transferred into 8-well Tissue Culture Chambers (Sarstedt, Nümbrecht, Germany) that were previously coated with poly-D-lysine (Sigma/Aldrich, Steinheim, Germany) in accordance to the manufacturers instructions. Ganglia were then covered with 5 μl of Matrigel (BD Bioscience, San Jose, Calif., U.S.A.) and incubated for 7 min at 37° C. DMEM without phenol red (Invitrogen) supplemented with 10% fetal bovine serum (Invitrogen), 2 mM L-Glutamine (Biowest, Nuaillé, France) and nerve growth factor (Sigma/Aldrich) were subsequently added. 12 SCG explants cultures were prepared per condition. SCG ganglia were cultured for minimum 24 hours prior to further manipulation. […]
Depolarization of sympathetic neurons in TH-Cre/LSLChR2-YFP explant cultures were performed on a Yokogawa CSUX Spinning Disk confocal using the 488 nm laser line and pointing at the region of interest (ROI) for 200 μs. […] NE in the SCG explant culture medium and sorted CD45, F4/80-double positive cells was determined with NE ELISA kit (Labor Diagnostika Nord GmbH, Nordhorn, Germany, cat # BA E-5200). […]

[8] abbreviates: fed-state, 2 h post-injection without access to food.

Where “and” joins values, the source holds several entries; their conditions need not be identical. Equal values may be shown once. Where a name gives a salt, the structure may show the parent alone.

Compound `CC(N)Cc1ccccc1` (centres unmarked) [AMPH, Amphetamine] yielded a Resting membrane potential in [1] of −35.70±1.02 mV. Moreover, the “Changes in resting membrane potential” value in [1] (AMPH vs Vehicle, FIGS. 5A, B) was “no significant changes”. Further, the Maximum firing frequency in [1] (current-clamp mode) was 37.60±1.07 Hz and 41.00±1.43 Hz. Also, in the data set with C57BL/6 mice [2] (fourth week of HFD), the “Core body temperature (rectal probe)” value is 37.94±0.10 °C and the “Tail temperature at the tail base (thermography)” value stood at 30.07±0.54 °C. Moreover, the “BAT temperature (thermography)” value in the data set on C57BL/6 mice [2] (HFD fed mice, fourth week) came to 38.25±0.25 °C. Also, in data set [3] (Control mice), the “NE content in inguinal WAT” value is 2.58±0.28 ng/mg of total tissue protein; the BW gain was 12.67±1.79%; the “Locomotor activity, total distance traveled” value came out at 21.88±1.09 m; the “Plasma Glycerol levels” value is 89.70 ± 10.20 µg/mL. Further, in [3] (Control mice), the Food intake is 2.08 ± 0.25 g/day. Also, in [3] (Symp mice), the “NE content in inguinal WAT” value stood at 1.51 ± 0.20 ng/mg; the BW gain was 39.19±4.54%; the “Locomotor activity, total distance traveled” value was 24.30±2.88 m; the “Plasma Glycerol levels” value is 59.07 ± 7.83 µg/mL. Besides, in [3] (Symp mice), the Food intake was found to be 2.00 ± 0.12 g/day. In addition, the “Locomotion, total distance traveled” value in the data set on C57BL/6 mice [4] (15-min video-tracking, 1 h post-injection) was 70.45±7.54 m. In addition, the “NE content in iWAT” value with C57BL/6 mice [4] (2 h post-injection) stood at 9.69 ± 1.49 ng/mg. In the data set with C57BL/6 mice [4] (2 h post-injection, per total tissue protein), the “NE content in gWAT” value amounted to 6.63 ± 0.58 ng/mg. In addition, the Food intake in the data set on C57BL/6 mice [4] (24 h post-injection, 0.12 mol/kg IP) amounted to 2.57 ± 0.15 g. Also, the Locomotor activity with C57BL/6 mice [5] ((a.u.), fourth week of HFD) worked out at 53.72±5.27 counts/day. Moreover, in the data set on C57BL/6 mice [5] (HFD fed, per total protein), the “NE levels in the liver” value came out at 1.327 ± 0.262 ng/mg and the “NE levels in the muscle” value stood at 0.493 ± 0.030 ng/mg. In the data set on C57BL/6 mice [5] (after 10 weeks of HFD), the iWAT adipocyte size is on record as 1152.0±58.9 μm^2 and the “iWAT weight, % of total BW” value turned out to be 0.92±0.13%. In addition, in the data set with C57BL/6 mice [5] (after 10 weeks of HFD and treatment, per total protein), the “NE content in iWAT” value was found to be 1.166 ± 0.263 ng/mg. This compound registered a BW gain in the data set on C57BL/6 mice [5] (after 10 weeks of HFD, 0.12 mol/kg daily IP) of 20.49±2.10%. The Daily food intake in the data set with C57BL/6 mice [5] (during HFD and treatment) was 2.17 ± 0.09 g/day. Besides, in the data set with C57BL/6 mice [5] (setting [8]), the “Circulating plasma insulin levels” value turned out to be 0.582 ± 0.020 ng/mL, the “Plasma Free Fatty Acids” value was found to be 0.766 ± 0.043 µmol/mL and the “Plasma Glycerol” value is 11.771 ± 1.249 µmol/mL. For the same compound, in the data set on C57BL/6 mice [5] (per total protein), the “TGs content in muscle” value came to 11.54 ± 0.17 µmol/mg and the “TGs content in the liver” value came out at 16.23 ± 1.95 µmol/mg. For the same compound, the “Total 24 h faecal output” value in the data set with C57BL/6 mice [6] (HFD feeding) was 0.48 ± 0.03 g. Besides, the “Faecal triglycerides (TGs) levels” value with C57BL/6 mice [6] (HFD feeding, per mg of faeces) came out at 1.89 ± 0.15 nmol/mg. Also, the “Plasma TGs levels” value in the data set on C57BL/6 mice [6] (setting [8]) amounted to 3.48 ± 0.01 µmol/mL. In addition, the “ACh-induced intracellular [Ca2+] increase, ΔF/F0” value in data set [7] is listed as 1.71±0.05.
Turning to `CNCCC(Oc1ccccc1OC)c1ccccc1` (centres unmarked) [Nisoxetine, Nisoxetine hydrochloride], at Slc6a2 (ACh-activated SCG explants, 2 hours), the “NE accumulation in SAMs” value is listed as “prevented NE accumulation in SAMs”. The “Uptake of NE by SAMs (NE content in CD45+F4/80+ cells)” value on Slc6a2 (optogenetic stimulation of SCG explants) is “prevented”.
Consider `C#CCN(C)CCCOc1ccc(Cl)cc1Cl` [clorgyline, Clorgyline], for which, on MAOa, the “Intracellular NE levels in SAMs” value is “nearly double intracellular NE levels” and the “NE levels in medium” value is “increased NE levels in medium”.

These data come from patent US20200323797A1, “Treatment of Obesity-related Conditions” (INSTITUTO DE MEDICINA MOLECULAR, priority 2017, published 2020).
